Data taken from publication PMC10726358 (Journal of Medicinal Chemistry, 2023).

What was measured:
OPRK1 = biological target: T1, OPRK1 (Homo sapiens, UniProt P41145); experiment: Cross screening: OPRK1 Agonist; format: biochemical
T1 construct: purchased GSK enhanced cross-screening panel (in-house)

CB1 = biological target: T2, CB1 (Homo sapiens, UniProt P21554); experiment: Cross screening: CB1 Agonist; format: biochemical
T2 construct: purchased GSK enhanced cross-screening panel (in-house)

BRD8 BD1 = biological target: T3, BRD8 BD1 (Homo sapiens, UniProt Q9H0E9); experiment: BROMOscan BRD8 BD1; format: binding
T3 construct: BRD8 BD1; purchased DiscoverX
Procedure: (§1) The BRD4 BD1/BD2 TR-FRET assay had been used routinely for this optimization work, and in order to better understand the BET BD1 domain selectivity profile, 31 was tested in TR-FRET BRD2, BRD3, and BRDT assays.
(§2) [52] BROMOscan recombinant protein binding assays were carried out at DiscoverX. (accessed April 4, 2023).

BRD7 = biological target: T4, BRD7 (Homo sapiens, UniProt Q9NPI1); experiment: BROMOscan BRD7; format: binding
T4 construct: ≥2000-fold selectivity over all 20 non-BET bromodomains tested; purchased DiscoverX
Procedure: as §1, §2

BRDT BD2 [1] = biological target: T5, BRDT BD2 (Homo sapiens, UniProt Q58F21); experiment: BRDT BD2 TR-FRET assay; format: binding
Procedure: as §1
(§3) All TR-FRET and hWB cytokine assays have been described previously.[54]

SMARCA2 = biological target: T6, SMARCA2 (Homo sapiens, UniProt P51531); experiment: BROMOscan SMARCA2; format: binding
T6 construct: ≥2000-fold selectivity over all 20 non-BET bromodomains tested; purchased DiscoverX
Procedure: as §1, §2

BRD4 BD1 = biological target: T7, BRD4 BD1 (Homo sapiens, UniProt O60885); experiment: BROMOscan BRD4 BD1; format: binding
T7 construct: BRD4 BD1; purchased DiscoverX
Procedure: as §1, §2

BRD3 BD1 = biological target: T8, BRD3 BD1 (Homo sapiens, UniProt Q15059); experiment: BROMOscan BRD3 BD1; format: binding
T8 construct: BRD3 BD1; purchased DiscoverX
Procedure: as §1, §2

BAZ2A = biological target: T9, BAZ2A (Homo sapiens, UniProt Q9UIF9); experiment: BROMOscan BAZ2A; format: binding
T9 construct: ≥2000-fold selectivity over all 20 non-BET bromodomains tested; purchased DiscoverX
Procedure: as §1, §2

BRD2 BD2 [2] = biological target: T10, BRD2 BD2 (Homo sapiens, UniProt P25440); experiment: BROMOscan BRD2 BD2; format: binding
T10 construct: BRD2 BD2; purchased DiscoverX
Procedure: as §1, §2

V1a = biological target: T11, V1a (Homo sapiens, UniProt P37288); experiment: Cross screening: V1a antagonist; format: biochemical
T11 construct: purchased GSK enhanced cross-screening panel (in-house)

[3] = Chromatographic LogD at pH 7.4
BSEP = BSEP (Homo sapiens, UniProt O95342); experiment: Cross screening: BSEP inhibitor
5-HT2A [4] = biological target: T12, 5-HT2A (Homo sapiens, UniProt P28223); experiment: Cross screening: 5-HT2A Agonist; format: biochemical
T12 construct: purchased GSK enhanced cross-screening panel (in-house)

5-HT2A [5] = biological target: T12, 5-HT2A; experiment: Cross screening: 5-HT2A antagonist; format: biochemical
BRD3 BD2 = BRD3 BD2 (Homo sapiens, UniProt Q15059); experiment: BRD3 BD2 TR-FRET assay; format: binding
Procedure: as §1, §3

5-HT2C = biological target: T13, 5-HT2C (Homo sapiens, UniProt P28335); experiment: Cross screening: 5-HT2C antagonist; format: biochemical
T13 construct: purchased GSK enhanced cross-screening panel (in-house)

BAZ2B = biological target: T14, BAZ2B (Homo sapiens, UniProt Q9UIF8); experiment: BROMOscan BAZ2B; format: binding
T14 construct: ≥2000-fold selectivity over all 20 non-BET bromodomains tested; purchased DiscoverX
Procedure: as §1, §2

LCK = biological target: T15, LCK (Homo sapiens, UniProt P06239); experiment: Cross screening: LCK inhibitor; format: biochemical
T15 construct: purchased GSK enhanced cross-screening panel (in-house)

Aurora B = biological target: T16, Aurora B (Homo sapiens, UniProt Q96GD4); experiment: Cross screening: Aurora B inhibitor; format: biochemical
T16 construct: purchased GSK enhanced cross-screening panel (in-house)

ATAD2A = biological target: T17, ATAD2A (Homo sapiens, UniProt Q6PL18); experiment: BROMOscan ATAD2A; format: binding
T17 construct: ≥2000-fold selectivity over all 20 non-BET bromodomains tested; purchased DiscoverX
Procedure: as §1, §2

Alpha 2C Adrenoceptor = biological target: T18, Alpha 2C Adrenoceptor (Homo sapiens, UniProt P18825); experiment: Cross screening: Alpha 2C Adrenoceptor agonist; format: biochemical
T18 construct: purchased GSK enhanced cross-screening panel (in-house)

ATAD2B = biological target: T19, ATAD2B (Homo sapiens, UniProt Q9ULI0); experiment: BROMOscan ATAD2B; format: binding
T19 construct: ≥2000-fold selectivity over all 20 non-BET bromodomains tested; purchased DiscoverX
Procedure: as §1, §2

BRDT BD2 [6] = biological target: T5, BRDT BD2; experiment: BROMOscan BRDT BD2; format: binding
Procedure: as §1, §2

EP300 = biological target: T20, EP300 (Homo sapiens, UniProt Q09472); experiment: BROMOscan EP300; format: binding
T20 construct: The broader non-BET bromodomain selectivity was also determined in the BROMOscan assay, with the closest off-target being EP300; purchased DiscoverX
Procedure: as §1, §2

[7] = biological target: T21, Acetylcholinesterase (AChE) (Homo sapiens, UniProt P22303); experiment: Cross screening: Acetylcholinesterase (AChE) antagonist; format: biochemical
T21 construct: purchased GSK enhanced cross-screening panel (in-house)

BRD1 = biological target: T22, BRD1 (Homo sapiens, UniProt O95696); experiment: BROMOscan BRD1; format: binding
T22 construct: ≥2000-fold selectivity over all 20 non-BET bromodomains tested; purchased DiscoverX
Procedure: as §1, §2

5-HT1B = biological target: T23, 5-HT1B (Homo sapiens, UniProt P28222); experiment: Cross screening: 5-HT1B Agonist; format: biochemical
T23 construct: purchased GSK enhanced cross-screening panel (in-house)

non-BET bromodomains = experiment: BROMOscan non-BET bromodomain panel; format: binding, human
Procedure: as §1, §2

5-HT3 = biological target: T24, 5-HT3 (Homo sapiens, UniProt P46098); experiment: Cross screening: 5-HT3 Agonist; format: biochemical
T24 construct: purchased GSK enhanced cross-screening panel (in-house)

FALZ = biological target: T25, FALZ (Homo sapiens, UniProt Q12830); experiment: BROMOscan FALZ; format: binding
T25 construct: ≥2000-fold selectivity over all 20 non-BET bromodomains tested; purchased DiscoverX
Procedure: as §1, §2

PXR = PXR (Homo sapiens, UniProt O75469); experiment: Cross screening: PXR Human Agonist
Monoamine Oxidase A = biological target: T26, Monoamine Oxidase A (Homo sapiens, UniProt P21397); experiment: Cross screening: Monoamine Oxidase A antagonist; format: biochemical
T26 construct: purchased GSK enhanced cross-screening panel (in-house)

SMARCA4 = biological target: T27, SMARCA4 (Homo sapiens, UniProt P51532); experiment: BROMOscan SMARCA4; format: binding
T27 construct: ≥2000-fold selectivity over all 20 non-BET bromodomains tested; purchased DiscoverX
Procedure: as §1, §2

BRD2 BD2 [8] = biological target: T10, BRD2 BD2; experiment: BRD2 BD2 TR-FRET assay; format: binding
Procedure: as §1, §3

Alpha 1 nAChR = biological target: T28, Alpha 1 nAChR (Homo sapiens, UniProt P02708+P07510+Q07001); experiment: Cross screening: Alpha 1 nAChR Antagonist; format: biochemical
T28 construct: purchased GSK enhanced cross-screening panel (in-house)

T20 sequence (Q09472 1049-1156 limits assumed): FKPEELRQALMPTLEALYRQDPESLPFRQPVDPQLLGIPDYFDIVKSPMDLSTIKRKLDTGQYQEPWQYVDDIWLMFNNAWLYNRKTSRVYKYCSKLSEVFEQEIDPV
T10 sequence (P25440 344-453 limits assumed): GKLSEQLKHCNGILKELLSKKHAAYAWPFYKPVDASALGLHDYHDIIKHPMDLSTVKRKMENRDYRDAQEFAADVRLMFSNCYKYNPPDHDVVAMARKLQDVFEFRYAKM
T12 sequence (P28223 whole entry): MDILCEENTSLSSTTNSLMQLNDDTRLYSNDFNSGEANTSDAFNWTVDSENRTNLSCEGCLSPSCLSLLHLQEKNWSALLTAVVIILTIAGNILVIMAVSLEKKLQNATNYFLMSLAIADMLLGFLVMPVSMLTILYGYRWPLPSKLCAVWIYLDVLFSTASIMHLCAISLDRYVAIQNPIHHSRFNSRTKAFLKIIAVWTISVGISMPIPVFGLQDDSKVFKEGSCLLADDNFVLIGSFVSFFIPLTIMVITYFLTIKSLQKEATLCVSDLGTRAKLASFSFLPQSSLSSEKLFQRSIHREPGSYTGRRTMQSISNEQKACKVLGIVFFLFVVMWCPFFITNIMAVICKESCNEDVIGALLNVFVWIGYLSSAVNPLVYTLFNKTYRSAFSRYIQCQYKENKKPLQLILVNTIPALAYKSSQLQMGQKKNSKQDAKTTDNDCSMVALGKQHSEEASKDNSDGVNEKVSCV
T8 sequence (Q15059 34-140 limits assumed): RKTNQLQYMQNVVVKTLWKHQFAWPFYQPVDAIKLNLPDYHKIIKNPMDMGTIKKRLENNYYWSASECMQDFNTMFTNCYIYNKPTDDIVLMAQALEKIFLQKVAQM
T15 sequence (P06239 whole entry): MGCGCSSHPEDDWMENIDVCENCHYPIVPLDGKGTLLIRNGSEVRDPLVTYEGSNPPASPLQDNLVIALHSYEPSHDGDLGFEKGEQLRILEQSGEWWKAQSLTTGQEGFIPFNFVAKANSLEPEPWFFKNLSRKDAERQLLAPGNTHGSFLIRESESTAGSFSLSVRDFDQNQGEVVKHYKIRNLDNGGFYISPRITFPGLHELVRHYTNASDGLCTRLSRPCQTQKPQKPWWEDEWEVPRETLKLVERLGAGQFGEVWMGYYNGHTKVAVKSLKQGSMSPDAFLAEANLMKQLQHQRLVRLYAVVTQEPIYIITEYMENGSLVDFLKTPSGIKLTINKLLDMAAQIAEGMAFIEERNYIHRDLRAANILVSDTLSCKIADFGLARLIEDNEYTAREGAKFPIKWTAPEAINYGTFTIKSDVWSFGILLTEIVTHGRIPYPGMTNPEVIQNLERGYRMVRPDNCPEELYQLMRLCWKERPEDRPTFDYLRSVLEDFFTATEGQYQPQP
T24 sequence (P46098 24-478): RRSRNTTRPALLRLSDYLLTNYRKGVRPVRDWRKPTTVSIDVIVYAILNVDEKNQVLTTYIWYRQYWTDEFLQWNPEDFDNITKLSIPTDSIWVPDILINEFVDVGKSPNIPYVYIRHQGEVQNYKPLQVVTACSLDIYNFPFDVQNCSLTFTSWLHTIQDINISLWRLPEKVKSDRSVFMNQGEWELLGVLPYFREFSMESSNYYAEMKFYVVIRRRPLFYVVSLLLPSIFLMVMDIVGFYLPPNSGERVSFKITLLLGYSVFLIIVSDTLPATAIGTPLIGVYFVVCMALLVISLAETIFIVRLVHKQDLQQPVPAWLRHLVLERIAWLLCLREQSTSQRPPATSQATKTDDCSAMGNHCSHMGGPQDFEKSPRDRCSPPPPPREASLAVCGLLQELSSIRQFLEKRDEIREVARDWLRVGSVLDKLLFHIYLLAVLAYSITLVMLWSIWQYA
T19 sequence (Q9ULI0 951-1066 limits assumed): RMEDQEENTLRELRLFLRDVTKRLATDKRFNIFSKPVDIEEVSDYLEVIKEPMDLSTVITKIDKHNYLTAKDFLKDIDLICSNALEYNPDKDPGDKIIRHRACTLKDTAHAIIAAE
T2 sequence (P21554 whole entry): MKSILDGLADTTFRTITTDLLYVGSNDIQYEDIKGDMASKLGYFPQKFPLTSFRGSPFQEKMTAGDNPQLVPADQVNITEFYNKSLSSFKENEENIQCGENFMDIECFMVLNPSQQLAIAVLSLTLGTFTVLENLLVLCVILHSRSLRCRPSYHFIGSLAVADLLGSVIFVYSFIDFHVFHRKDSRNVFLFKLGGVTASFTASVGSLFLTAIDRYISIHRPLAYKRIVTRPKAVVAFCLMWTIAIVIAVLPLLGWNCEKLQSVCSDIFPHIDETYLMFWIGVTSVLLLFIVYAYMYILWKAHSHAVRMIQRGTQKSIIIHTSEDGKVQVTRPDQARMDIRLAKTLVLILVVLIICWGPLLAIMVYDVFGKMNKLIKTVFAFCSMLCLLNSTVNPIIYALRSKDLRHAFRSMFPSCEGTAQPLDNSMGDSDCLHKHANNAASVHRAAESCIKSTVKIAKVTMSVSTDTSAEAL
T26 sequence (P21397 whole entry): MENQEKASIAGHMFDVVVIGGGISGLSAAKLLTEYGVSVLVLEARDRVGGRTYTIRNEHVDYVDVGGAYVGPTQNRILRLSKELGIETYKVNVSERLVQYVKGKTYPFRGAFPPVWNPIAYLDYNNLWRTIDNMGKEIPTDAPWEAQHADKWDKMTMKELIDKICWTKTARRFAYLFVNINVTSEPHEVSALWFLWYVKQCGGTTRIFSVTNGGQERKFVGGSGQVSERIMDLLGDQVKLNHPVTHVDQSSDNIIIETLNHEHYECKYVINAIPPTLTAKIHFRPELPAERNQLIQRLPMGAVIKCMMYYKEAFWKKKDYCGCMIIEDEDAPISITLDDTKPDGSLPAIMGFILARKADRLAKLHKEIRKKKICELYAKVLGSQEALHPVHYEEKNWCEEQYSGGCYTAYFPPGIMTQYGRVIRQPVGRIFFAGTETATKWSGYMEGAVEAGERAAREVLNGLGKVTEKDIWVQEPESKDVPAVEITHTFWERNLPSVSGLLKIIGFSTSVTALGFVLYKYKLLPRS
T18 sequence (P18825 whole entry): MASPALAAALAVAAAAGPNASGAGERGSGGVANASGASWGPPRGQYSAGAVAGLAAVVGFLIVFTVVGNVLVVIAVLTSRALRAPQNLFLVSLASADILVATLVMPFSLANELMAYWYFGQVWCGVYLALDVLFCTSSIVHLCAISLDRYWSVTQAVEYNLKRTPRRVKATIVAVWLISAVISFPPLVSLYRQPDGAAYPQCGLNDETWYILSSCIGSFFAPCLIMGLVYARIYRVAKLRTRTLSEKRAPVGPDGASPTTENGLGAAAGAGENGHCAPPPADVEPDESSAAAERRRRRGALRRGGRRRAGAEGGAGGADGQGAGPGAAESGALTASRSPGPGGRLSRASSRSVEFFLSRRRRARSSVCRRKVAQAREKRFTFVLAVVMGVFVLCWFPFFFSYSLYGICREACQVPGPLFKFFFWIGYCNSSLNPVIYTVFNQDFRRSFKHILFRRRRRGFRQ
T16 sequence (Q96GD4 whole entry): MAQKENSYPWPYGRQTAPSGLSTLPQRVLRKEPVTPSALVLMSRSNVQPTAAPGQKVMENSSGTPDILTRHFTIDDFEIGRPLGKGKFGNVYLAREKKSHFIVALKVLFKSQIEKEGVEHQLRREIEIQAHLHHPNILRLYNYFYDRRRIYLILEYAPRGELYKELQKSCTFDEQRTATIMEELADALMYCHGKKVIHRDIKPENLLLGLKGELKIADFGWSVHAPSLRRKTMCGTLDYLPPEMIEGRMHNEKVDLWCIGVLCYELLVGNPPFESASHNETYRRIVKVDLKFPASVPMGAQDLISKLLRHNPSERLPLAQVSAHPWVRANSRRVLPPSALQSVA
T6 sequence (P51531 1378-1506 limits assumed): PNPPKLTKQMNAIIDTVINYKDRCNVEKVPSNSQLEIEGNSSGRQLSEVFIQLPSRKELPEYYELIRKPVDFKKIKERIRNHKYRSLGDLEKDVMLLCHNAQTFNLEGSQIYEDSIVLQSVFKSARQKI
T3 sequence (Q9H0E9 706-811 limits assumed): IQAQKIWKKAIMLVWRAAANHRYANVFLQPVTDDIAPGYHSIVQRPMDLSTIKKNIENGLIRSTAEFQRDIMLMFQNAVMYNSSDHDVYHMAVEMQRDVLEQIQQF
T13 sequence (P28335 33-458): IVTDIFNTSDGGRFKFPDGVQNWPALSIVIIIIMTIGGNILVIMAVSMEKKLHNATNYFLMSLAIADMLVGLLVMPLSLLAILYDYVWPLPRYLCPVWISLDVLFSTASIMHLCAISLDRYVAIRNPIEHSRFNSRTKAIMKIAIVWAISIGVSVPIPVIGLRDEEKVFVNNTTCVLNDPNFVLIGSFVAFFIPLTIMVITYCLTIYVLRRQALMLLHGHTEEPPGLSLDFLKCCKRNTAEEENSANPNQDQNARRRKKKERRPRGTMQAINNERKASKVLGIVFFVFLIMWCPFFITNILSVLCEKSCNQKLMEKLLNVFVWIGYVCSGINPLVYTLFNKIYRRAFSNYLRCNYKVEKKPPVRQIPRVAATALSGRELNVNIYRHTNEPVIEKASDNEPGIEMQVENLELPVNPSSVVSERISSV
Sequence of PXR (O75469 whole entry): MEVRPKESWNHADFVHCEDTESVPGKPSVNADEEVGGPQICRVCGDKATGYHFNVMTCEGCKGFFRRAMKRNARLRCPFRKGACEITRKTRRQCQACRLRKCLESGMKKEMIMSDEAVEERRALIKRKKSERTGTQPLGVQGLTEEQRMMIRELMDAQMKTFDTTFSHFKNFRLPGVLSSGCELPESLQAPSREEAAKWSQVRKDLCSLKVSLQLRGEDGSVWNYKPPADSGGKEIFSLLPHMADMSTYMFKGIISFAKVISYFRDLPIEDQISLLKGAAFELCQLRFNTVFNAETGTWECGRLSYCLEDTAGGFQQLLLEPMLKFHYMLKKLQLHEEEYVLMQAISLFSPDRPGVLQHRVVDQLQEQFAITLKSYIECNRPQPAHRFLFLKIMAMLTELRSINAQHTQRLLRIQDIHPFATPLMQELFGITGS

For `Cc1cc(-c2nc3ccccc3n2C[C@@H]2CCCN(C(=O)C3CCN(C(C)C)CC3)C2)cn(C)c1=O` [Compound 31, (S)-5-(1-((1-(1-Isopropylpiperidine-4-carbonyl)piperidin-3-yl)methyl)-1H-benzo [d]imidazole-2-yl)-1,3-dimethylpyridin-2(1H)-one], the “pXC50 OPRK1 Agonist” value (OPRK1) was < 4.0, the “pXC50 CB1 Agonist” value (CB1) was < 4.0 and the Kd (BRD8 BD1) was > 31.6 µM. For the same compound, the Kd (BRD7) was > 31.6 µM, the “BRDT BD2 TR-FRET pIC50” value (BRDT BD2 [1]) was 4.5 and the Kd (SMARCA2) was > 31.6 µM. For the same compound, the “BROMOscan pKd BRD4 BD1” value (BRD4 BD1) was 8.1, the “fold selectivity BRD4 BD1 over BD2” value (BRD4 BD1; BROMOscan) was 316 fold and the “BROMOscan pKd BRD3 BD1” value (BRD3 BD1) was 8.4. The “fold selectivity BRD3 BD1 over BD2” value (BRD3 BD1; BROMOscan) was 400 fold, the Kd (BAZ2A) was > 31.6 µM and the “BROMOscan pKd BRD2 BD2” value (BRD2 BD2 [2]) was 5.5. For the same compound, the “pXC50 V1a antagonist” value (V1a) was < 4.3, the “PFI (property forecast index)” value ([3]; chromLogDpH7.4 + number of aromatic rings) was 4.7 and the chromatographic logD ([3]; pH 7.4) was 1.7. The “pXC50 BSEP inhibitor” value (BSEP) was < 3.7, the “pXC50 5-HT2A Agonist” value (5-HT2A [4]) was < 4.0 and the “pXC50 5-HT2A antagonist” value (5-HT2A [5]) was < 4.0. The “BRD3 BD2 TR-FRET pIC50” value (BRD3 BD2) was 5.1, the “pXC50 5-HT2C antagonist” value (5-HT2C) was < 4.0 and the Kd (BAZ2B) was > 31.6 µM. For the same compound, the “pXC50 LCK inhibitor” value (LCK) was < 4.5, the “pXC50 Aurora B inhibitor” value (Aurora B) was < 4.5 and the Kd (ATAD2A) was > 31.6 µM. For the same compound, the “pXC50 Alpha 2C Adrenoceptor agonist” value (Alpha 2C Adrenoceptor) was < 4.0, the Kd (ATAD2B) was > 31.6 µM and the “BROMOscan pKd BRDT BD2” value (BRDT BD2 [6]) was 5.5. For the same compound, the “BROMOscan pKd EP300” value (EP300) was 5.0, the “fold selectivity over EP300” value (EP300; BROMOscan, compared to BRD4 BD1 pKd 8.1) was 1200 fold and the “pXC50 Acetylcholinesterase (AChE) antagonist” value [7] was < 4.0. For the same compound, the Kd (BRD1) was > 31.6 µM, the “pXC50 5-HT1B Agonist” value (5-HT1B) was < 4.0 and the “selectivity over all non-BET bromodomains and broader liability targets tested” value (non-BET bromodomains) was ≥ 1200 fold. The “BROMOscan pKd 20 non-BET bromodomains” value (non-BET bromodomains; 20 non-BET bromodomains other than EP300) was ≤4.8, the “fold selectivity over 20 non-BET bromodomains” value (non-BET bromodomains; BROMOscan) was ≥2000 fold and the “pXC50 5-HT3 Agonist” value (5-HT3) was < 4.3. For the same compound, the Kd (FALZ) was > 31.6 µM, the “pXC50 PXR Human Agonist” value (PXR) was < 4.3 and the “pXC50 Monoamine Oxidase A antagonist” value (Monoamine Oxidase A) was < 4.0. For the same compound, the Kd (SMARCA4) was > 31.6 µM, the “BRD2 BD2 TR-FRET pIC50” value (BRD2 BD2 [8]) was 5.4 and the “pXC50 Alpha 1 nAChR Antagonist” value (Alpha 1 nAChR) was < 4.2.
